# Columns and labels:
# cells = test: Cell death in cells exposed to the C-terminal peptide; format: cell-based
# HAP1 cells = test: Cell cycle analysis by flow cytometry (double thymidine block or asynchronous BrdU/propidium iodide); format: cell-based, human; conditions: WT cells expressing or exposed to the C-terminal CSNAP segment; release from double thymidine block (FIG. 9)
# Protocol: UV treated cells were exposed to 5 J/m^2 dose at release, and fixed with ethanol at different time points. Cell cycle phases were assessed by flow cytometry (LSRII, BD Biosciences) following propidium iodide staining. Asynchronous cells were analyzed using propidium iodide and BrdU double staining. 10^5 cells were denatured after fixation using 2N HCl, 0.5% Triton X-100 in PBS for 30 minutes, neutralized in 0.1M Na2B4O7 pH8.5 and incubated with 5 μl of anti-BrdU-FITC (eBioscience 11-5071-41) 1% BSA, 0.5% Triton X-100 in PBS for 1 hour. Cells were washed in 1% BSA in PBS and resuspended in PBS containing 50 μg/ml propidium iodide and 50 μg/ml RNAse A, and analyzed in FACSAria Fusion flow cytometer (BD Biosciences).
sequence,measurement,setting,value
"DFFNDFEDLFDDDDIQ [C-terminal peptide, peptide comprising the C-terminal region of CSNAP, responsible for assembly into the CSN complex]",induction of cell death,cells,induce cell death
same,cell cycle progression,HAP1 cells,capable of preventing cell cycle progression
